Measurements as given in patent publication US12600714B2, “Substituted pyrazinecarboxamide compounds for treating diseases related to EGFR mutation” (WIGEN BIOMEDICINE TECHNOLOGY (SHANGHAI) CO., LTD., priority 2020, dated 2026).

What was measured:
EGFR (del19/T790M/C797S) = test: HTRF inhibitory activity assay against EGFR (del19/T790M/C797S) enzyme; type: biochemical
Procedure, shortened: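 Wild-type or mutant EGFR preincubated with serially diluted compound 10 min at 28 °C, then reacted 40 min at room temperature with biotinylated TK substrate and ATP. Phosphorylation detected by HTRF (Eu-cryptate anti-TK antibody, streptavidin-XL665, 60 min), 665/615 nm ratio; % inhibition and IC50 vs control.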

A431 (EGFR WT) cells = test: Antiproliferative activity against A431 (EGFR WT) cells, Cell Titer Glow; type: cell-based; details: Homo sapiens, A-431, 72 h; three days after addition of compounds; read-out: Antiproliferative activity A431 wild-type (WT) IC50
Description: (§1) Antiproliferative Activity of the Compounds Disclosed Herein Against Ba/F3 (EGFR^del19/T790M/C797S) Triple-Mutant Cells and A431 (EGFR WT) Cells
(§2) • 3000 Ba/F3 cells carrying EGFR (del19/T790M/C797S) or 2000 A431 cells were seeded in a 384-well plate. After one day, serially diluted compounds were added (up to 500 nM for Ba/F3 cells and up to 10 μM for A431 cells). Three days after the addition of the compounds, Cell Titer Glow was added to evaluate cell growth and the percentage cell growth inhibition by the compounds and the IC50 values were calculated.

EGFR (L858R/T790M/C797S) = EGFR (L858R/T790M/C797S) (Homo sapiens, UniProt P00533, C797S/L858R/T790M); test: HTRF inhibitory activity assay against EGFR (L858R/T790M/C797S) enzyme; type: biochemical; details: read-out: EGFR (L858R/T790M/C797S) inhibition (%) (0.3 nM compound)
Description: (§3) Inhibitory Activity Assay of the Compounds Disclosed Herein Against EGFR (del19/T790M/C797S), EGFR (L858R/T790M/C797S) or EGFR (WT) Enzymes
(§4) The inhibitory effects of the compounds against EGFR (del19/T790M/C797S), EGFR (L858R/T790M/C797S) or EGFR (WT) enzyme activity was determined by using HTRF. The procedures are as follows:
(§5) The WT or mutant EGFR proteins were incubated with a serially diluted compounds at 28° C. for 10 min followed by addition of biotin-labeled general tyrosine kinase (TK) substrate and ATP. The mixture was incubated at room temperature for 40 min for reaction. After the termination of the reaction, an Eu3+-Cryptate-labeled antibody against TK and streptavidin-XL665 were added and the mixture was incubated at room temperature for 60 min. The luminescences at 615 nm and 665 nm were detected and the ratio of 665/615 was calculated to quantify the level of TK substrate phosphorylation. Inhibition % and IC50 of the compounds were calculated relative to the control group.

[1] = molecular target: Ba/F3 (EGFR^del19/T790M/C797S) triple-mutant cells (Homo sapiens, UniProt P00533, T790M/C797S, cells depend on it, form not given); test: Antiproliferative activity against Ba/F3 (EGFR del19/T790M/C797S) triple-mutant cells, Cell Titer Glow; type: cell-based; details: three days after addition of compounds; read-out: Antiproliferative activity BaF3(EGFR^del19/T790M/C797S) IC50
Description: as §1, §2

EGFR (WT) = EGFR (WT) (Homo sapiens, UniProt P00533); test: HTRF inhibitory activity assay against EGFR (WT) enzyme; type: biochemical
Description: as §3, §4, §5

Sequence of EGFR (L858R/T790M/C797S) (P00533 25-1210 T790M/C797S/L858R): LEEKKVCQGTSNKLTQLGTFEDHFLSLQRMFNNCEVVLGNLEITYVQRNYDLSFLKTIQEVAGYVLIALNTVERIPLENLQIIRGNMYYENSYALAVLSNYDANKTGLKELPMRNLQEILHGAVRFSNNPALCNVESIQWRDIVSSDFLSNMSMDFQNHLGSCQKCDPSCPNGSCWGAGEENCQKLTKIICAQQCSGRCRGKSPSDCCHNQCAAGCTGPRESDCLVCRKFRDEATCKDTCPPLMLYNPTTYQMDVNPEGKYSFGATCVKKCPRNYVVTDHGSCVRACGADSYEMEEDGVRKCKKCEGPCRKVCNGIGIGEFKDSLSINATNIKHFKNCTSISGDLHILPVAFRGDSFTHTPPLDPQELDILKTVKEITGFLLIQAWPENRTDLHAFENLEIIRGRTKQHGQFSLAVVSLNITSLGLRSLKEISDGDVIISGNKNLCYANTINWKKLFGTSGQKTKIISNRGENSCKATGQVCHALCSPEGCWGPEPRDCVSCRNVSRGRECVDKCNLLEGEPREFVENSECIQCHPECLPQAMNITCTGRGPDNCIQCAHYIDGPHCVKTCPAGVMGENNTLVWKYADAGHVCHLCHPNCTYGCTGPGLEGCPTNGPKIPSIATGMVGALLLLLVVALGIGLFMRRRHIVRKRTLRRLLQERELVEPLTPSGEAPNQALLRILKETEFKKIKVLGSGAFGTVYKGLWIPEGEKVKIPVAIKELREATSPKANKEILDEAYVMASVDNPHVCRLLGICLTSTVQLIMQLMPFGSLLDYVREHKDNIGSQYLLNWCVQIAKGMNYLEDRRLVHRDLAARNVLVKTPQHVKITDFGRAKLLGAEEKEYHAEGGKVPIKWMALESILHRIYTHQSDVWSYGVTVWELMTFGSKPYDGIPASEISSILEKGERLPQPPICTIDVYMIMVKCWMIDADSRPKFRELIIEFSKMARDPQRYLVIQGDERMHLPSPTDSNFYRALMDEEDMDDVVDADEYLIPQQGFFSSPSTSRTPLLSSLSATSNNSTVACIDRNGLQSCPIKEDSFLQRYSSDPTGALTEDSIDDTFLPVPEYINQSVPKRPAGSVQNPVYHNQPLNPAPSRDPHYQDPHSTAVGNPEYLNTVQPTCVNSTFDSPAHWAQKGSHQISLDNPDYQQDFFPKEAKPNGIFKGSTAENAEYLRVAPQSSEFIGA
Sequence of Ba/F3 (EGFR^del19/T790M/C797S) triple-mutant cells (P00533 with tags, fused parts or gaps DEL746-750/T790M/C797S, form open): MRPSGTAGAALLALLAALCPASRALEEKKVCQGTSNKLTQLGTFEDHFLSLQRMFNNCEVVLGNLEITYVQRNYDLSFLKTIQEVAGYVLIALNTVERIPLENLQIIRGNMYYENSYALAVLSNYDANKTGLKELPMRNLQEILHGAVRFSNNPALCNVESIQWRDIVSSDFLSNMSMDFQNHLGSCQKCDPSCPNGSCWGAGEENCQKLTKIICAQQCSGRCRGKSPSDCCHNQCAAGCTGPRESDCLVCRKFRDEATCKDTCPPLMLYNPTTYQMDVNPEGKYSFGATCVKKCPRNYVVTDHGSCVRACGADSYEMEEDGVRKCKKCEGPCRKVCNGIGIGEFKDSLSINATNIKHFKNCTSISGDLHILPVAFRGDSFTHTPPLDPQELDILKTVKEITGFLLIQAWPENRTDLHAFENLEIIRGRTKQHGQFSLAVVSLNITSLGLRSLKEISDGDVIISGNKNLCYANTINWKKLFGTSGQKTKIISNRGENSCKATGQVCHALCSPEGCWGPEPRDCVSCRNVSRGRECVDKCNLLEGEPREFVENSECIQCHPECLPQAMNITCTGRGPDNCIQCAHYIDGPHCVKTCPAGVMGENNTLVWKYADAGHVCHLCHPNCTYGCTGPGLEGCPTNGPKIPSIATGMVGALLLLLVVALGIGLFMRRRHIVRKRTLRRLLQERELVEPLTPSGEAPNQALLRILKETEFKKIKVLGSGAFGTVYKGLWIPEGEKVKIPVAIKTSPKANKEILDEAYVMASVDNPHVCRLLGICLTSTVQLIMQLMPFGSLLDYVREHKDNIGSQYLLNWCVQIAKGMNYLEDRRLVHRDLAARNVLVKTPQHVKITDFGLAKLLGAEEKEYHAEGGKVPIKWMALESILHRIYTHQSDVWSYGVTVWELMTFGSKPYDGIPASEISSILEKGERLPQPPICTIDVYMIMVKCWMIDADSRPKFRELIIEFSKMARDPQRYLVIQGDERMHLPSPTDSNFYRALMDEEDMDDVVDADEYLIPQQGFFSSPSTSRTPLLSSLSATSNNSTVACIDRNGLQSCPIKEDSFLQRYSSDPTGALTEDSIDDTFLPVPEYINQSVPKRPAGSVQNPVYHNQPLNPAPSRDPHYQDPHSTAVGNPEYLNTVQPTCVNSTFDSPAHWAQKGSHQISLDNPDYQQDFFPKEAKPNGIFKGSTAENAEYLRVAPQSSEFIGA
Sequence of EGFR (WT) (P00533 25-1210): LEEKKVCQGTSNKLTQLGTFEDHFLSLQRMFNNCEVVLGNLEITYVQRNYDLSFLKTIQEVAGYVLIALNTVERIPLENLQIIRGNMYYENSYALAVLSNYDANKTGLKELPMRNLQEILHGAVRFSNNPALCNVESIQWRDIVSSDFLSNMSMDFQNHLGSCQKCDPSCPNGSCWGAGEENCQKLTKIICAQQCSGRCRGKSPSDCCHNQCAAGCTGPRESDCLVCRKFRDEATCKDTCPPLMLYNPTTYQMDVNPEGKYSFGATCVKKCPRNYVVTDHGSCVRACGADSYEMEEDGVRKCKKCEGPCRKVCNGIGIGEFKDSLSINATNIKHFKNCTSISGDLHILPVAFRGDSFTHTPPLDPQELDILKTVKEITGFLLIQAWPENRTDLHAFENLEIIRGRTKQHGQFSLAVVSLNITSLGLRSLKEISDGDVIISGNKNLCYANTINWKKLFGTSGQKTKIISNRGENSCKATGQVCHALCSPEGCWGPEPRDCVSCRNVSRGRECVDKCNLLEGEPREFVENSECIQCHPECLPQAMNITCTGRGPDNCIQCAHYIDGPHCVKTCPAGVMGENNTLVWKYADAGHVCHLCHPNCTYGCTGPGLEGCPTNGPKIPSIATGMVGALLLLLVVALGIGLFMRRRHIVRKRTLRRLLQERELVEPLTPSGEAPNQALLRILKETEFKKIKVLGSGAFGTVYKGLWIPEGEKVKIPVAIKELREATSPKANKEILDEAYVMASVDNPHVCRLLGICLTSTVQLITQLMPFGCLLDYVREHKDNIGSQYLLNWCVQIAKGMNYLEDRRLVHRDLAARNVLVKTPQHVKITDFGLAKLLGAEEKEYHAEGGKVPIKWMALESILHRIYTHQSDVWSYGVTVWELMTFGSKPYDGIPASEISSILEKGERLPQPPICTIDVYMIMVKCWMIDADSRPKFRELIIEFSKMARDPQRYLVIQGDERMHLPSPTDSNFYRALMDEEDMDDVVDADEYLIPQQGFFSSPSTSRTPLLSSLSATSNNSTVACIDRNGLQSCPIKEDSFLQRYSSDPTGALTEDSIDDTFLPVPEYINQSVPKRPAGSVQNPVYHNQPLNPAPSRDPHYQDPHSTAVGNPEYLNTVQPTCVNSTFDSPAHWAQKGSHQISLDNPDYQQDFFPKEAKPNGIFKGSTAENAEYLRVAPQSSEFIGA

Row | Compound | EGFR (del19/T790M/C797S) inhibition (%) (0.3 nM compound) (EGFR (del19/T790M/C797S)) | IC50 (A431 (EGFR WT) cells) [nM] | inhibition at 0.0003 µM (EGFR (L858R/T790M/C797S)) [%] | GI50 [1] [nM] | IC50 (EGFR (WT)) [nM]
1 | CO[C@H]1C[C@H](Nc2nc(Nc3ccc(N4CCC(N5CCN(C)CC5)CC4)cc3)c(C(N)=O)nc2-c2ccccc2)C1 [compound 125] | ++ (++ indicates an inhibition from 20% to 50%) | 650 | 20 to 50 | 99 | –
2 | CN1CCC(Oc2nc(Nc3ccc(N4CCC(N5CCN(C)CC5)CC4)cc3)c(C(N)=O)nc2-c2ccccc2)CC1 [compound 4] | + (+ indicates an inhibition less than or equal to 20%) | 1700 | ≤ 20 | 295 | > 100
3 | CC(C)Nc1nc(Nc2ccc(N3CCC(N4CCN(C)CC4)CC3)cc2)c(C(N)=O)nc1-c1cccc2[nH]ccc12 [compound 521] | +++ (+++ indicates an inhibition greater than 50%.) | 50 | > 50 | 4 | 0.27
4 | CN1CCN(C2CCN(c3ccc(Nc4nc(NC5CCOCC5)c(-c5cn[nH]c5)nc4C(N)=O)cc3)CC2)CC1 [compound 57] | ++ (++ indicates an inhibition from 20% to 50%) | 320 | 20 to 50 | 79 | > 300
5 | CN1CCN(C2CCN(c3ccc(Nc4nc(NC5CC5)c(-c5cccc6[nH]ccc56)nc4C(N)=O)cc3)CC2)CC1 [compound 522] | +++ (+++ indicates an inhibition greater than 50%.) | 30 | > 50 | 2 | 0.22
6 | CN1CCN(C2CCN(c3ccc(Nc4nc(N[C@H]5CC[C@H](O)CC5)c(-c5ccccc5)nc4C(N)=O)cc3)CC2)CC1 [compound 23] | ++ (++ indicates an inhibition from 20% to 50%) | 950 | ≤ 20 | 36 | –
7 | CCc1cc(Nc2nc(NC3CC4(COC4)C3)c(-c3cc[nH]n3)nc2C(N)=O)ccc1N1CCC(N2CCN(C)CC2)CC1 [compound 503] | +++ (+++ indicates an inhibition greater than 50%.) | 660 | ≤ 20 | 61 | 10.2
8 | CC(C)Nc1nc(Nc2ccc(N3CCC(N4CCN(C)CC4)CC3)cc2)c(C(N)=O)nc1-c1ccccc1 [compound 11] | ++ (++ indicates an inhibition from 20% to 50%) | 540 | – | 107 | > 300
9 | CN1CCN(C2CCN(c3ccc(Nc4nc(NCC(C)(C)O)c(-c5ccccc5)nc4C(N)=O)cc3)CC2)CC1 [compound 21] | ++ (++ indicates an inhibition from 20% to 50%) | 520 | – | 48 | > 300
10 | CN1CCN(C2CCN(c3ccc(Nc4nc(NC5CC6(COC6)C5)c(-c5cccc6[nH]ccc56)nc4C(N)=O)cc3)CC2)CC1 [compound 527] | +++ (+++ indicates an inhibition greater than 50%.) | 100 | > 50 | 4 | 1.7
11 | COc1ccncc1-c1nc(C(N)=O)c(Nc2ccc(N3CCC(N4CCN(C)CC4)CC3)cc2)nc1NC1CCOCC1 [compound 83] | ++ (++ indicates an inhibition from 20% to 50%) | 750 | 20 to 50 | 233 | –
12 | CN1CCN(C2CCN(c3ccc(Nc4nc(NC5CCOCC5)c(-c5ccccn5)nc4C(N)=O)cc3)CC2)CC1 [compound 38] | – | 1800 | 20 to 50 | 48 | –
13 | CN1CCN(C2CCN(c3ccc(Nc4nc(NC5CCOCC5)c(-c5cc[nH]n5)nc4C(N)=O)cc3)CC2)CC1 [compound 55, 3-((4-(4-(4-methylpiperazin-1-yl)piperidin-1-yl)phenyl)amino)-6-(1H-pyrazol-3-yl)-5-((tetrahydro-2H-pyran-4-yl)amino)pyrazine-2-carboxamide] | +++ (+++ indicates an inhibition greater than 50%.) | 70 | ≤ 20 | 16 | > 300
14 | Cc1cc(Nc2nc(NC3CCOCC3)c(-c3ccncc3)nc2C(N)=O)ccc1N1CCC(N2CCN(C)CC2)CC1 [compound 114] | ++ (++ indicates an inhibition from 20% to 50%) | 970 | > 50 | 27 | –
15 | CC(C)Oc1nc(Nc2ccc(N3CCC(N4CCN(C)CC4)CC3)cc2)c(C(N)=O)nc1-c1ccccc1 [compound 14] | + (+ indicates an inhibition less than or equal to 20%) | 950 | – | 113 | > 300
16 | CN1CCN(C2CCN(c3ccc(Nc4nc(Nc5ccccc5)c(-c5ccccc5)nc4C(N)=O)cc3)CC2)CC1 [compound 5] | + (+ indicates an inhibition less than or equal to 20%) | – | ≤ 20 | – | > 100
17 | CNc1nc(Nc2ccc(N3CCC(N4CCN(C)CC4)CC3)cc2)c(C(N)=O)nc1-c1ccccc1 [compound 13] | + (+ indicates an inhibition less than or equal to 20%) | 1300 | – | 197 | > 300
18 | CN(C)C1CCN(c2ccc(Nc3nc(NC4CCOCC4)c(-c4ccccc4)nc3C(N)=O)cc2)CC1 [compound 59] | + (+ indicates an inhibition less than or equal to 20%) | 1400 | – | 72 | > 300
19 | CN1CCN(C2CCN(c3ccc(Nc4nc(NC5CCOCC5)c(-c5ccccc5C#N)nc4C(N)=O)cc3)CC2)CC1 [compound 52] | +++ (+++ indicates an inhibition greater than 50%.) | – | – | – | > 300
20 | CN1CCN(C2CCN(c3ccc(Nc4nc(NC5CS(=O)(=O)C5)c(-c5ccccc5)nc4C(N)=O)cc3)CC2)CC1 [compound 126] | + (+ indicates an inhibition less than or equal to 20%) | 2600 | ≤ 20 | 248 | –
21 | CN1CCN(C2CCN(c3ccc(Nc4nc(O[C@H]5CCN(C)C5)c(-c5ccccc5)nc4C(N)=O)cc3)CC2)CC1 [compound 2] | + (+ indicates an inhibition less than or equal to 20%) | – | – | – | > 100
22 | CCc1nc(C(N)=O)c(Nc2ccc(N3CCC(N4CCN(C)CC4)CC3)c(OC)c2)nc1NC1CCOCC1 [Gilteritinib, gilteritinib, reference compound] | – | – | ≤ 20 | > 500 | –
23 | CN1CCC(c2ccc(Nc3nc(NC4CCOCC4)c(-c4ccncc4)nc3C(N)=O)cc2)CC1 [compound 121] | +++ (+++ indicates an inhibition greater than 50%.) | 590 | > 50 | 70 | –
24 | CN1CCN(C2CCN(c3ccc(Nc4nc(N(C)C)c(-c5ccccc5)nc4C(N)=O)cc3)CC2)CC1 [compound 10] | ++ (++ indicates an inhibition from 20% to 50%) | – | – | – | > 300
25 | CN1CCN(C2CCN(c3ccc(Nc4nc(NC5CCCC5)c(-c5cccc6[nH]ccc56)nc4C(N)=O)cc3)CC2)CC1 [compound 524] | +++ (+++ indicates an inhibition greater than 50%.) | – | > 50 | – | –
26 | CN1CCN(C2CCN(c3ccc(Nc4nc(NC5COC5)c(-c5cccc6[nH]ccc56)nc4C(N)=O)cc3)CC2)CC1 [compound 594] | +++ (+++ indicates an inhibition greater than 50%.) | 70 | > 50 | 13 | –
27 | COC1CCC(Nc2nc(Nc3ccc(N4CCC(N5CCN(C)CC5)CC4)cc3)c(C(N)=O)nc2-c2ccccc2)C1 (stereo not shown) [compound 35] | ++ (++ indicates an inhibition from 20% to 50%) | 480 | ≤ 20 | 54 | –
